In patent publication US9480754B2, “Phospholipid ether analogs as cancer-targeting drug vehicles” (Cellectar Biosciences, Inc., priority 2014, dated 2016):

What was measured:
[1] = test system: xenograft, orthotopic and transgenic cancer and cancer stem cell derived animal models; experiment: CLR1404 tumor selectivity across 60 tumor models; type: in vivo, rodent; conditions: 60 different malignant cell lines and tumor types
Description: (§1) All described animal studies were performed according to animal protocols approved by the Institutional Animal Care and Use Committee. Female athymic nude mice (Hsd:Athymic Nude-Foxnlnu or Crl:NU-Foxnlnu, Charles River Laboratories) about 4 to 5 weeks of age, 16 to 18 g (n=6), were used for human tumor xenograft studies. Mice were anesthetized with isoflurane and injected subcutaneously with viable tumor cells in 100 μl of Dulbecco's PBS (or, for glioma cells, […] of PBS) into the right flank. Inoculum sizes were 1×10^6 (for renal, ovarian, glioma, pancreatic, prostate, and NSCLC models), […] (for colorectal and uterine models), or 3×10^6 (breast).
(§2) Radioiodinated ^124I-CLR1404 was tested in subcutaneous and orthotopic xenografts of 60 different spontaneous, transgenic, human, and rodent malignant cell lines and tumor types. […] Representative examples are of both human (FIG. 5A-5I) and rodent (FIG. 5J-M) tumors.

[2] = test system: Lung NCI H-69 (Oat Cell); experiment: 124I-CLR1404 tumor uptake, model 3; type: in vivo; conditions: SCID mouse, Small cell carcinoma
Description: as §1, §2

[3] = test system: Adrenal H-295; experiment: 124I-CLR1404 tumor uptake, model 4; type: in vivo; conditions: SCID mouse, Adenocarcinoma
Description: as §1, §2

[4] = test system: Colon LS180; experiment: 124I-CLR1404 tumor uptake, model 7; type: in vivo; conditions: SCID mouse, Adenocarcinoma
Description: as §1, §2

[5] = test system: Colon DLD1; experiment: 124I-CLR1404 tumor uptake, model 8; type: in vivo; conditions: SCID mouse, Adenocarcinoma
Description: as §1, §2

[6] = test system: Colon LS-180; experiment: 124I-CLR1404 tumor uptake, model 10; type: in vivo; conditions: Nude mouse, Adenocarcinoma
Description: as §1, §2

[7] = test system: Melanoma A-375; experiment: 124I-CLR1404 tumor uptake, model 12; type: in vivo; conditions: Nude mouse
Description: as §1, §2

[8] = test system: Neuroblastoma SK-N-AS; experiment: 124I-CLR1404 tumor uptake, model 14; type: in vivo; conditions: Nude mouse
Description: as §1, §2

[9] = test system: Neuroblastoma CHLA-20; experiment: 124I-CLR1404 tumor uptake, model 16; type: in vivo; conditions: Nude mouse
Description: as §1, §2

[10] = test system: Pancreatic BXPC3; experiment: 124I-CLR1404 tumor uptake, model 20; type: in vivo; conditions: Nude mouse, Adenocarcinoma
Description: as §1, §2

[11] = test system: Pancreatic Mia Paca-2; experiment: 124I-CLR1404 tumor uptake, model 21; type: in vivo; conditions: Nude mouse, Carcinoma
Description: as §1, §2

[12] = test system: Renal cell Caki-2; experiment: 124I-CLR1404 tumor uptake, model 23; type: in vivo; conditions: Nude mouse (orthotopic), Clear cell carcinoma
Description: as §1, §2

[13] = test system: Breast 4T1; experiment: 124I-CLR1404 tumor uptake, model 35; type: in vivo; conditions: Endogenous mouse (orthotopic), Adenocarcinoma
Description: as §1, §2

[14] = test system: Min mouse intestinal; experiment: 124I-CLR1404 tumor uptake, model 42; type: in vivo; conditions: Endogenous mouse, Adenocarcinoma
Description: as §1, §2

[15] = test system: Glioma L9; experiment: 124I-CLR1404 tumor uptake, model 47; type: in vivo; conditions: Rat xenograft
Description: as §1, §2

[16] = test system: Pancreatic Kras; experiment: 124I-CLR1404 tumor uptake, model 53; type: in vivo; conditions: Endogenous mouse, Adenocarcinoma
Description: as §1, §2

C[N+](C)(C)CCOP(=O)([O-])OCCCCCCCCCCCCCCCCCCc1ccc(I)cc1 [^124I-CLR1404]
tumor localization after intravenous administration [1]: localized in almost all primary and metastatic malignant tumors
Uptake [2]: Yes (Tumor uptake was considered positive if tumor to muscle ratio was greater than 3.)
Uptake [3]: Yes (Tumor uptake was considered positive if tumor to muscle ratio was greater than 3.)
Uptake [4]: Yes (Tumor uptake was considered positive if tumor to muscle ratio was greater than 3.)
Uptake [5]: Yes (Tumor uptake was considered positive if tumor to muscle ratio was greater than 3.)
Uptake [6]: Yes (Tumor uptake was considered positive if tumor to muscle ratio was greater than 3.)
Uptake [7]: Yes (Tumor uptake was considered positive if tumor to muscle ratio was greater than 3.)
Uptake [8]: Yes (Tumor uptake was considered positive if tumor to muscle ratio was greater than 3.)
Uptake [9]: Yes (Tumor uptake was considered positive if tumor to muscle ratio was greater than 3.)
Uptake [10]: Yes (Tumor uptake was considered positive if tumor to muscle ratio was greater than 3.)
Uptake [11]: Yes (Tumor uptake was considered positive if tumor to muscle ratio was greater than 3.)
Uptake [12]: Yes (Tumor uptake was considered positive if tumor to muscle ratio was greater than 3.)
Uptake [13]: Yes (Tumor uptake was considered positive if tumor to muscle ratio was greater than 3.)
Uptake [14]: Yes (Tumor uptake was considered positive if tumor to muscle ratio was greater than 3.)
Uptake [15]: Yes (Tumor uptake was considered positive if tumor to muscle ratio was greater than 3.)
Uptake [16]: Yes (Tumor uptake was considered positive if tumor to muscle ratio was greater than 3.)
